Patent US6531610B1 (Abbott Laboratories, priority 1989, dated 2003)

Experiments:
MT4 cells = assay: in vitro; assay type: cell-based; conditions: concentration at which 50% of the cells remain viable; MT4 cells; read-out: LC50 (the source's name)
Text: The anti-HIV activity of the compounds of the invention can be determined in MT4 cells according to the procedure of Kempf, et. al. (Antimicrob. Agents Chemother. 1991, 35, 2209).

HIV-13B in MT4 cells = assay: Antiviral activity: inhibition of the cytopathic effect of HIV in MT4 cells; assay type: cell-based, HIV-1; conditions: concentration giving 50% inhibition of the cytopathic effect of HIV; HIV-13B in MT4 cells; read-out: IC50

melting point | Structure (SMILES) | CC50 (MT4 cells) | IC50 (HIV-13B in MT4 cells)
– | CC(C)c1nc(CN(C)C(=O)N[C@H](C(=O)N[C@@H](Cc2ccccc2)C[C@H](O)[C@H](Cc2ccccc2)NC(=O)OCc2cnco2)C(C)C)co1 [Example 19] | 87 µM | 22 to 48 nM
62 to 64 °C | CC(C)c1csc(COC(=O)N[C@H](C(=O)N[C@@H](Cc2ccccc2)C[C@H](O)[C@H](Cc2ccccc2)NC(=O)OCc2cncs2)C(C)C)n1 [Example 21, (2S,3S,5S)-5-(N-(N-((4-Isopropyl-2-thiazolyl)methoxycarbonyl)valinyl)amino)-2-(N-((5-thiazolyl)methoxycarbonyl)amino)-1,6-diphenyl-3-hydroxyhexane] | – | –
– | CC(C)c1nc(CC(=O)N[C@H](C(=O)N[C@@H](Cc2ccccc2)C[C@H](O)[C@H](Cc2ccccc2)NC(=O)OCc2cncs2)C(C)C)cs1 [Example 50] | > 100 µM | 150 to 270 nM
